Laboratory results as given in patent US5919797A, “Halogenated naphthyl methoxy piperidines for mapping serotonin transporter sites” (Emory University, priority 1997, dated 1999).
“Also recorded” adds a separate entry of the source. Where a name gives a salt, the structure may show the parent alone. Read-outs that look alike come from different tables or passages of the source.

Tests used:
[1] = tested on: serotonin transporter sites; settings: carbon-11 labelled, vs previously tested PET serotonin transporter ligands; cited from earlier work
serotonin transporter [2] = biological target: T1, serotonin transporter (Rattus norvegicus, UniProt P31652); assay: inhibition of [3H]-citalopram binding to rat cortical homogenates (competitive radioligand binding assay)
T1 construct: from tissue; host or cells: rat cerebral cortex homogenate
T1 sequence (P31652 whole entry): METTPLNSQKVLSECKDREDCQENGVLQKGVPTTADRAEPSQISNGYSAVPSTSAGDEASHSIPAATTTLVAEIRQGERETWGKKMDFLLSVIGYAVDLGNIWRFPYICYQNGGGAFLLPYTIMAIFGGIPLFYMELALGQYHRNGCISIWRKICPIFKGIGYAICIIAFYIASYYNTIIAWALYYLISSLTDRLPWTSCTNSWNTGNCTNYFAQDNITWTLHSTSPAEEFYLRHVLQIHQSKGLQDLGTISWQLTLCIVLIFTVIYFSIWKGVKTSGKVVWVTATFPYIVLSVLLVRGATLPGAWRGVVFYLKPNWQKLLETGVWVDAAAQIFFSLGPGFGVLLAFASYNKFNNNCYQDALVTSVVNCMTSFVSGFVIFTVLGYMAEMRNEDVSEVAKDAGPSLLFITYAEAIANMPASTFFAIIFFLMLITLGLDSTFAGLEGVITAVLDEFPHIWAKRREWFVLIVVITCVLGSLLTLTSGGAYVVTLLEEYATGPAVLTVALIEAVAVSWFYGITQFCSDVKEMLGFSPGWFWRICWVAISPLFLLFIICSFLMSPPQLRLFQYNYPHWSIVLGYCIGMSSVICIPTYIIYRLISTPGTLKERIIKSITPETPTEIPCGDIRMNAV
Text: Compounds of the invention have activity as specific ligands of the serotonin transporter. In particular, the 1-halonaphthalenyl pharmacophore has high affinity for the serotonin transporter. […] Halogen substituents can be in naturally-occurring or radioisotopic form.
Many compounds have been described in the literature as selective inhibitors of the presynaptic reuptake of serotonin (5-hydroxytryptamine,5-HT). […] A good correlation exists between the capacities of a variety of drugs to inhibit [^3 -H]-citalopram binding and [^3 -H]-5HT uptake in rat cortex, thus allowing this binding test to be used in screening for new 5-HT uptake inhibitors. […]

serotonergic neurons = assay: biodistribution studies in rats of radiolabelled compound; type: in vivo, rat; settings: 123-I labelled
5HT3 receptor = assay: inhibition of [3H] GR65630 binding to serotonergic synaptosomal preparation
Text: 5HT3 receptor activity. It blocked the binding of [3H] GR65630 to […]

[3] = tested on: presynaptic reuptake of serotonin; settings: humans; depression, obsessive-compulsive and eating disorders, alcoholism, drug addiction; cited from earlier work
serotonin transporter [4] = settings: radiolabeled with carbon-11 and fluorine-18; cited from earlier work
[5] = Table 1, rat cortical tissue, read-out: [3H]-Citalopram Binding IC50
[6] = Table 1, rat cortical tissue, read-out: [3H]-Citalopram Binding Ki
[7] = concentration needed to achieve 50% inhibition of citalopram binding (IC50), rat cortical homogenates
[8] = serotonergic synaptosomal preparation

SMILES | IC50 (serotonin transporter [2]; [5]) | Ki (serotonin transporter [2]; [6]) | IC50 (serotonin transporter [2]; [7]) | inhibition of [3H]-citalopram binding / affinity for the serotonin transporter, in words (serotonin transporter [2]; rat cortical tissue) | also measured
[11CH3]Sc1ccc([C@H]2CN3CCC[C@H]3c3ccccc32)cc1 [Carbon-11 McN-5652Z] |  |  |  |  | accumulation in brain regions rich in serotonergic neurons, in words [1]: greatest accumulation in brain regions rich in serotonergic neurons
Brc1c(COC2CCNCC2)ccc2ccccc12.Cl [Compound 1, 4-[(1-Bromo-2-naphthalenyl)methoxy]piperidine hydrochloride] | 0.02 nM | 0.014 nM | 0.015 nM | most potent inhibitor | potency relative to fluoxetine, inhibition of [3H]-citalopram binding (serotonin transporter [2]; rat cortical tissue, vs fluoxetine (Prozac)): 100 fold
Ic1c(COC2CCNCC2)ccc2ccccc12 [Compound 2, 4[(1-Iodo-2-naphthalenyl)methoxyl]piperidine hydrochloride] |  |  | 4.1 nM |  | Ki (serotonin transporter [2]): 4.13 nM; IC50 (serotonin transporter [2]; [3H]-Citalopram Binding IC50, Table 1, rat cortical tissue): 5.9 nM
Cl.Fc1c(COC2CCNCC2)ccc2ccccc12 [Compound 3, 4-[(1-Fluoro-2-naphthalenyl)methoxy]-piperidine hydrochloride] | 5.74 nM | 3.37 nM | 3.37 nM | inhibitory activity comparable to that of fluoxetine and fluvoxamine | 
Cl.Clc1c(COC2CCNCC2)ccc2ccccc12 [Compound 4, 4-[(1-Chloro-2-naphthalenyl)methoxy]-piperidine hydrochloride] | 2.12 nM | 1.24 nM | 1.24 nM | inhibitory activity comparable to that of fluoxetine and fluvoxamine | 
Brc1c(COC2CCNCC2)c(I)cc2ccccc12 [Compound 5, 4-[(1-Bromo-3-iodo-2-naphthalenyl)methoxy]piperidine hydrochloride] | 54.6 nM | 36.9 nM |  |  | 
Brc1c(COC2CCNCC2)cc(I)c2ccccc12 [Compound 6, 4-[(1-bromo-4-iodo-2-naphthalenyl)methoxy]piperidine hydrochloride] | 24.6 nM | 16.7 nM |  |  | 
Brc1c(COC2CCNCC2)ccc2cc(I)ccc12 [Compound 7, 4-[(1-Bromo-6-iodo-2-naphthalenyl)methoxy]piperidine hydrochloride] | 60 nM | 58.4 nM |  |  | 
[123I]c1c(COC2CCNCC2)ccc2ccccc12 [Compound 58] |  |  |  |  | selective accumulation of radioactivity in serotonergic neurons (serotonergic neurons): did not lead to selective accumulation of the radioactivity in serotonergic neurons
c1ccc2nc(COC3CCNCC3)ccc2c1 [Compound 70, 4-[(2-quinolenyl)methoxy]piperdine hydrochloride] | > 100 nM | > 100 nM |  | devoid of affinity for the serotonin transporter | 5-HT3 antagonism, in words (5HT3 receptor; hydrochloride): high selectivity as an antagonist of 5-HT3 function; also recorded: potent inhibitor; IC50 (5HT3 receptor; [8]): 7.4 nM; Ki (5HT3 receptor; [8]): 3.24 nM
COCCCC/C(=N\OCCN)c1ccc(C(F)(F)F)cc1 [fluvoxamine] |  |  |  |  | therapeutic value, in words [3]: considerable therapeutic value
O=[N+]([O-])c1ccc2nc(N3CCNCC3)ccc2c1 [nitroquipazine] |  |  |  |  | image quality / in vivo affinity and selectivity, in words (serotonin transporter [4]): poor quality images
